ChEMBL document CHEMBL5465560, “Selectivity Literature for EUbOPEN Chemogenomic Library” (2024)
Each block holds one molecule with its values, some of them ahead of it.

Experiments:
[1] = tested on: Mast/stem cell growth factor receptor Kit (Homo sapiens), P10721 [V559D,V654A]; assay: (§1) Selectivity interaction (ProQinase) EUB0000171b KIT
[2] = tested on: Mast/stem cell growth factor receptor Kit (Homo sapiens), P10721 [V560G]; assay: as §1
[3] = tested on: Mast/stem cell growth factor receptor Kit (Homo sapiens), P10721 [V559D,T670I]; assay: as §1
[4] = tested on: Mast/stem cell growth factor receptor Kit (Homo sapiens), P10721 [A829P]; assay: as §1
[5] = tested on: Mast/stem cell growth factor receptor Kit (Homo sapiens), P10721 [V559D]; assay: as §1
[6] = tested on: Mast/stem cell growth factor receptor Kit (Homo sapiens), P10721 [D816V]; assay: as §1
[7] = tested on: Mast/stem cell growth factor receptor Kit (Homo sapiens), P10721 [D816H]; assay: as §1
[8] = tested on: Mast/stem cell growth factor receptor Kit (Homo sapiens), P10721 [T670I]; assay: as §1
[9] = tested on: Mast/stem cell growth factor receptor Kit (Homo sapiens), P10721 [V654A]; assay: as §1
[10] = biological target: Mast/stem cell growth factor receptor Kit (Homo sapiens, UniProt P10721); assay: as §1
[11] = biological target: Serine/threonine-protein kinase N1 (Homo sapiens, UniProt Q16512); assay: Selectivity interaction (KinomeScan (DiscoverX)) EUB0000045b PKN1
[12] = biological target: MAP/microtubule affinity-regulating kinase 3 (Homo sapiens) (UniProt P27448); assay: Selectivity interaction (KinomeScan (DiscoverX)) EUB0000045b MARK3
[13] = biological target: Fibroblast growth factor receptor 2 (Homo sapiens) (UniProt P21802); assay: Selectivity interaction (KinomeScan (DiscoverX)) EUB0000045b FGFR2
[14] = biological target: DNA-dependent protein kinase catalytic subunit (Homo sapiens) (UniProt P78527); assay: Selectivity interaction (Kinase panel (KiNativ target engagement assay in Jurkat cells)) EUB0001635a PRKDC; type: cell-based; conditions: Selectivity number of off-targets 0.0, Selectivity number of targets 233.0, Source Knowledge https://www.sciencedirect.com/science/article/pii/S2451945619300674?via%3Dihub, at 1 µM
[15] = biological target: T1, Serine/threonine-protein kinase ULK1 (Homo sapiens) (UniProt O75385); assay: Selectivity interaction (Kinase panel (KiNativ target engagement assay in Jurkat cells)) EUB0001635a ULK1; type: cell-based; conditions: Selectivity number of off-targets 0.0, Selectivity number of targets 233.0, Source Knowledge https://www.sciencedirect.com/science/article/pii/S2451945619300674?via%3Dihub, at 1 µM
T1 sequence (whole entry): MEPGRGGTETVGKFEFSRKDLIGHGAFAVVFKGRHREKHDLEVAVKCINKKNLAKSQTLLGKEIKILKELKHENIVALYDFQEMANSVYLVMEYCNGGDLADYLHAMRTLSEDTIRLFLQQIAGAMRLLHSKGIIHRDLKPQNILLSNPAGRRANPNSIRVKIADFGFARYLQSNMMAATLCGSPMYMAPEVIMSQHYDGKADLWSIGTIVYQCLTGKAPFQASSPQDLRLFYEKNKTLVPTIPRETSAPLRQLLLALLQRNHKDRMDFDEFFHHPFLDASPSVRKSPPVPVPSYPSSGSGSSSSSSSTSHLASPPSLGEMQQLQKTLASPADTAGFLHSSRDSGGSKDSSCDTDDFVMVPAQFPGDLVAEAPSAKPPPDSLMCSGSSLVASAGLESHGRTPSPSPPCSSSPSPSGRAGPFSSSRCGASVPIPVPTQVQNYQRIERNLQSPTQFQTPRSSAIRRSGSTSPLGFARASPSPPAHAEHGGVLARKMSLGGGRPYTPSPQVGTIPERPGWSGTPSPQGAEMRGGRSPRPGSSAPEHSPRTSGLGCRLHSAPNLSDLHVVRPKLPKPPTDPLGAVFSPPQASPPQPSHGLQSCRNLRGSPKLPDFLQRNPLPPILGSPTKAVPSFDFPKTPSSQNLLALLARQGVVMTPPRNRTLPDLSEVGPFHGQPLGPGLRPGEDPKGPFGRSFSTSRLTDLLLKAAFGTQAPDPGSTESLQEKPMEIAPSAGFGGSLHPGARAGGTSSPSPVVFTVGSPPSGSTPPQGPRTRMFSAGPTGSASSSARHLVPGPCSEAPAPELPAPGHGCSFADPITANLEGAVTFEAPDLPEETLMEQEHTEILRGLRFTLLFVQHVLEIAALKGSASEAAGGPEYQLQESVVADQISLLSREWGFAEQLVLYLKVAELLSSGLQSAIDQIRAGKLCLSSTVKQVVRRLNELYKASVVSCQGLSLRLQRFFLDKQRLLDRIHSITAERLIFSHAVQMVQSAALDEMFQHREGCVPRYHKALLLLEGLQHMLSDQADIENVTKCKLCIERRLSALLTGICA

[16] = biological target: T2, Serine/threonine-protein kinase MAK (Homo sapiens) (UniProt P20794); assay: Selectivity interaction (KinomeScan (DiscoverX)) EUB0000618a MAK; conditions: at 10 µM
T2 sequence (whole entry): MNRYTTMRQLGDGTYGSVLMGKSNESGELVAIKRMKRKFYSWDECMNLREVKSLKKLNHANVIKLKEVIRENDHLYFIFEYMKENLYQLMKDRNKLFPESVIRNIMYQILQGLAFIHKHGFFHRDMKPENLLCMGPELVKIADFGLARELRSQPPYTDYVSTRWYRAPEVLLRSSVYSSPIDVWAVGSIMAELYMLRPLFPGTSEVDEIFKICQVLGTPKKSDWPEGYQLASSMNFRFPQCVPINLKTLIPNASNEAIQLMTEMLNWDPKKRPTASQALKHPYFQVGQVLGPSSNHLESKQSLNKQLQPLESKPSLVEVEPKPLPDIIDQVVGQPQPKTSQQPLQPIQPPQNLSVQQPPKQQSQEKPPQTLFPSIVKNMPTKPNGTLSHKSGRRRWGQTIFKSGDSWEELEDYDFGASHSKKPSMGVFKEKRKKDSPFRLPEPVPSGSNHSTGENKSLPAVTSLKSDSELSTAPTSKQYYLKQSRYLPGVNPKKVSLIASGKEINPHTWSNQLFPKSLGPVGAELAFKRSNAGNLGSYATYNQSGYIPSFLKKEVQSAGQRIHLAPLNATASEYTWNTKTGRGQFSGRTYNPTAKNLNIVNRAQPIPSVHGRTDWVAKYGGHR

Chain of Mast/stem cell growth factor receptor Kit (Homo sapiens), P10721 [V559D,V654A] (P10721 whole entry V559D/V654A): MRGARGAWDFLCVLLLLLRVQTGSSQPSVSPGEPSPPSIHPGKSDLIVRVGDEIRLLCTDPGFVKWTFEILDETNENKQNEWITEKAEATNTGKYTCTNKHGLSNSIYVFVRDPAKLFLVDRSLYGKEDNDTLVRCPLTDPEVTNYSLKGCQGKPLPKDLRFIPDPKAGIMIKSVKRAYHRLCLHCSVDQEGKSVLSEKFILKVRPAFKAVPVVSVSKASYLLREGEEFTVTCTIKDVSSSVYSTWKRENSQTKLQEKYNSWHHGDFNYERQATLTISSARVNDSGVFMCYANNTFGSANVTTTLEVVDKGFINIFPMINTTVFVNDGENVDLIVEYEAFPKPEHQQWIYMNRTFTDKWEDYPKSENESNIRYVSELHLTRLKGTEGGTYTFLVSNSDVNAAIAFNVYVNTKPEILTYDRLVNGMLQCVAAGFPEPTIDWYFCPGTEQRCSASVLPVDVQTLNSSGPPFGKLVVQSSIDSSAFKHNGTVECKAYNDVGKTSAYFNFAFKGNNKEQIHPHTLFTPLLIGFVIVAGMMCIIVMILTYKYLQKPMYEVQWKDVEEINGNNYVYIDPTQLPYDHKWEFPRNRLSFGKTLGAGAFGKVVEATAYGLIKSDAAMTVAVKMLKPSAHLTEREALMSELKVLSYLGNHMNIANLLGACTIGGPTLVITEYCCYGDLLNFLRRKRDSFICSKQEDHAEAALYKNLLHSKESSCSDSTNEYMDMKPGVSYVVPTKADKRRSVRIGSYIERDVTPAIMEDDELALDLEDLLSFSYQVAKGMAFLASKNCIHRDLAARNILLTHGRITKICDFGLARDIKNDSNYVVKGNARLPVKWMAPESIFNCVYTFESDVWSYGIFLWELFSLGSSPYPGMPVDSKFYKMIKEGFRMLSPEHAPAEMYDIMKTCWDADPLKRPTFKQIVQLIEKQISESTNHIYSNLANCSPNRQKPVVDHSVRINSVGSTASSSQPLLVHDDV
Chain of Fibroblast growth factor receptor 2 (Homo sapiens) (P21802 22-821 limits assumed): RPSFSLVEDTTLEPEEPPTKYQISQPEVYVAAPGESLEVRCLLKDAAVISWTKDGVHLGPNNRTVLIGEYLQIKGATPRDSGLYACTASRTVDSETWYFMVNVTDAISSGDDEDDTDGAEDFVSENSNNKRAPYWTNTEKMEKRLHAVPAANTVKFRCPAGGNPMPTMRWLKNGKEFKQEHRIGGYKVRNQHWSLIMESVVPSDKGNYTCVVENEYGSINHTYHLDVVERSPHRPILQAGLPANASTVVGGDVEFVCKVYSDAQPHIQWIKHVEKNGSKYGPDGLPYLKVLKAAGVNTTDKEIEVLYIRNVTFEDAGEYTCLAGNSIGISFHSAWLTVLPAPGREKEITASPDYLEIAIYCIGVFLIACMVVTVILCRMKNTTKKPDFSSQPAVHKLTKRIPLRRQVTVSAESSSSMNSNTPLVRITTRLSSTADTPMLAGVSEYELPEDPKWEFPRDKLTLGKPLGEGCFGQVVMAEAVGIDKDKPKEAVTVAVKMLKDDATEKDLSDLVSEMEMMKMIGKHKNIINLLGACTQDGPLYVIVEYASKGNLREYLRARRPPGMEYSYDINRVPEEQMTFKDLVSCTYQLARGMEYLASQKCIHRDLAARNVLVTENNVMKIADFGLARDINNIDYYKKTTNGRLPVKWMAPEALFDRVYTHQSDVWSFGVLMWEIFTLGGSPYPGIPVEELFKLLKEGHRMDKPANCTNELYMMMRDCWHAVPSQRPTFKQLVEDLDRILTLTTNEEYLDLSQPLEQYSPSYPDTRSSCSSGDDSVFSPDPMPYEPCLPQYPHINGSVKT
Chain of Mast/stem cell growth factor receptor Kit (Homo sapiens), P10721 [V654A] (P10721 whole entry V654A): as the sequence (P10721 whole entry V559D/V654A) above, with D559V counted along it
Chain of Mast/stem cell growth factor receptor Kit (Homo sapiens), P10721 [V559D,T670I] (P10721 whole entry V559D/T670I): as the sequence (P10721 whole entry V559D/V654A) above, with A654V, T670I counted along it
Chain of Mast/stem cell growth factor receptor Kit (Homo sapiens), P10721 [D816H] (P10721 whole entry D816H): as the sequence (P10721 whole entry V559D/V654A) above, with D559V, A654V, D816H counted along it
Chain of Mast/stem cell growth factor receptor Kit (P10721 whole entry): as the sequence (P10721 whole entry V559D/V654A) above, with D559V, A654V counted along it
Chain of Mast/stem cell growth factor receptor Kit (Homo sapiens), P10721 [T670I] (P10721 whole entry T670I): as the sequence (P10721 whole entry V559D/V654A) above, with D559V, A654V, T670I counted along it
Chain of Serine/threonine-protein kinase N1 (Q16512 2-942 limits assumed): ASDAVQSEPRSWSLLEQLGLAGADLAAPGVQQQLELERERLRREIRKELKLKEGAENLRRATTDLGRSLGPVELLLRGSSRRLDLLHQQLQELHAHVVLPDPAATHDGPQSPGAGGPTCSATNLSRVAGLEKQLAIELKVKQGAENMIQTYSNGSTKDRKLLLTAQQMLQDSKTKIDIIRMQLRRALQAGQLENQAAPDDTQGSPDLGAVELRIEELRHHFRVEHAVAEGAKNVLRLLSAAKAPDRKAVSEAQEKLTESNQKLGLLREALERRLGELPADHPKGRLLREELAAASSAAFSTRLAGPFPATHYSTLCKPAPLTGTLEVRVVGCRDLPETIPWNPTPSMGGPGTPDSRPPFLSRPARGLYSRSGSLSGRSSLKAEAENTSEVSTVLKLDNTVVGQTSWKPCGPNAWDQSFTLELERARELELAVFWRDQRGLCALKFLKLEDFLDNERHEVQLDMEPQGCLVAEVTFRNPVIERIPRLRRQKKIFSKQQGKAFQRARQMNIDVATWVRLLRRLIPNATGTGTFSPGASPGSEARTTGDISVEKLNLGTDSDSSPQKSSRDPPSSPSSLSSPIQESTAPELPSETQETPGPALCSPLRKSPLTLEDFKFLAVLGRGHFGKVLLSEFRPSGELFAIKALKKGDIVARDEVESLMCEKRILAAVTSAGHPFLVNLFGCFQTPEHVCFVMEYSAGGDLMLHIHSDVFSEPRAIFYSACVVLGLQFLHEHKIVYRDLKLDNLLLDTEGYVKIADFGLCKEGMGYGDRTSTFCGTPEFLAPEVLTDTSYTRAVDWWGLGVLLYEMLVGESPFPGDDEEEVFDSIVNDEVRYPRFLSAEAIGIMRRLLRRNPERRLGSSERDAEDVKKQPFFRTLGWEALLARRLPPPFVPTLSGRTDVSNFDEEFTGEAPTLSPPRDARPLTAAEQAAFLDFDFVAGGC
Chain of Mast/stem cell growth factor receptor Kit (Homo sapiens), P10721 [V559D] (P10721 whole entry V559D): as the sequence (P10721 whole entry V559D/V654A) above, with A654V counted along it
Chain of Mast/stem cell growth factor receptor Kit (Homo sapiens), P10721 [D816V] (P10721 whole entry D816V): as the sequence (P10721 whole entry V559D/V654A) above, with D559V, A654V, D816V counted along it
Chain of MAP/microtubule affinity-regulating kinase 3 (Homo sapiens) (P27448 whole entry, looked up): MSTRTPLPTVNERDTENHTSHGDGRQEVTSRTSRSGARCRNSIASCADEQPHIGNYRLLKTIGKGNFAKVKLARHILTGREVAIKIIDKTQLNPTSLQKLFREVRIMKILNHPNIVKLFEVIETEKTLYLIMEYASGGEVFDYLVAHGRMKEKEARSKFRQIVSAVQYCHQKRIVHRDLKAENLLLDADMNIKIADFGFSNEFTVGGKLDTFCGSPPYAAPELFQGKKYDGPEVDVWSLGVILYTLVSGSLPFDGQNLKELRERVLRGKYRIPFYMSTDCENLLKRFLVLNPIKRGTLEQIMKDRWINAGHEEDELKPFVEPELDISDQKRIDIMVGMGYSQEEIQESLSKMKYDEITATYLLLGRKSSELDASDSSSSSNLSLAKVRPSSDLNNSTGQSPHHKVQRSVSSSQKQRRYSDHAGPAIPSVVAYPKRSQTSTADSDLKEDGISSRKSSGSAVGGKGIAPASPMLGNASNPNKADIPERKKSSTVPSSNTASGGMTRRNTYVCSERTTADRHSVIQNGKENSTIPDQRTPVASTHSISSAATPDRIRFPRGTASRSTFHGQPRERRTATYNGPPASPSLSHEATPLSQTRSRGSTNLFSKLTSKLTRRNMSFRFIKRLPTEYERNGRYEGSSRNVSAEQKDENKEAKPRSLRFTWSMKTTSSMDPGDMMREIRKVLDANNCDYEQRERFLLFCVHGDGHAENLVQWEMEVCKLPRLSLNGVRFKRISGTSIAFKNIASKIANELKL
Chain of Mast/stem cell growth factor receptor Kit (Homo sapiens), P10721 [V560G] (P10721 whole entry V560G): as the sequence (P10721 whole entry V559D/V654A) above, with D559V, V560G, A654V counted along it
Chain of Mast/stem cell growth factor receptor Kit (Homo sapiens), P10721 [A829P] (P10721 whole entry A829P): as the sequence (P10721 whole entry V559D/V654A) above, with D559V, A654V, A829P counted along it

- % of control ([1]; at 1 µM): 94%
- % of control ([1]; at 5 µM): 85%
- % of control ([2]; at 1 µM): 95%
- % of control ([2]; at 5 µM): 67%
- % of control ([3]; at 1 µM): 96%
- % of control ([3]; at 5 µM): 77%
- % of control ([4]; at 1 µM): 68%
- % of control ([4]; at 5 µM): 75%
- % of control ([5]; at 1 µM): 102%
- % of control ([5]; at 5 µM): 94%
- % of control ([6]; at 1 µM): 87%
- % of control ([6]; at 5 µM): 55%
- % of control ([7]; at 1 µM): 91%
- % of control ([7]; at 5 µM): 66%
- % of control ([8]; at 1 µM): 107%
- % of control ([8]; at 5 µM): 98%
- % of control ([9]; at 1 µM): 103%
- % of control ([9]; at 5 µM): 80%
- % of control ([10]; at 1 µM): 98%
- % of control ([10]; at 5 µM): 101%
Compound: C=CC(=O)Nc1cccc(C(=O)Nc2ccc(Nc3cc(-c4[nH]c(SC)nc4C)ccn3)cc2)c1

Compound: C=CC(=O)Nc1cc(-n2c(=O)ccc3cnc4ccc(-c5ccc(NS(C)(=O)=O)cc5)cc4c32)ccc1C
- % of control ([11]; at 1 µM): 100%
- % of control ([11]; at 10 µM): 99%
- % of control ([12]; at 1 µM): 75%
- % of control ([12]; at 10 µM): 97%
- % of control ([13]; at 1 µM): 96%
- % of control ([13]; at 10 µM): 92%

Compound: C=CC(=O)Nc1ccc(C(=O)Nc2[nH]nc3c2CN(C(=O)N[C@H](CN(C)C)c2ccccc2)C3(C)C)cc1
- % of engagement [14]: -21.9%
- % of engagement [15]: 5.7%

Compound: O[C@H]1CC[C@H](Nc2ncc3nc(Nc4c(F)cc(F)cc4F)n([C@H]4CCOC4)c3n2)CC1
- % of control [16]: 97%
